The record followed here is US5874461A, “Use of Nebivolol as an anti-atherogenic” (priority 1995, dated 1999).

In assay [1] the test system is C6 glioma cells. Description: GSH content in C6 glioma cultures after glutamate. The assay is classed as cell-based. Particulars: for intracellular glutathione levels: 10 mM glutamate, 6 hr or more; for GSH content: glutamate 10 mM, without or with compound 1 μM. The source says: (§1) Competitive inhibition by glutamate of cystine uptake in certain cells leads to glutathione depletion and oxidative stress. This oxidative stress model has been described for glial C6 glioma cells (Kato et al., 1992. A mechanism for glutamate toxicity in the C6 glioma cells involving inhibition of cystine uptake leading to glutathione depletion. Neurosci. 48:903-914) and for the neuronal cell line N18RE105 (Murphy et al., 1989. Glutamate toxicity in a neuronal cell line involves inhibition of cystine transport leading to oxidative stress. Neuron 2:1547-1558).
(§2) Cell culture: The C6 glioma cell line (American Type Culture Collection, CCL 107) was cultivated in DMEM supplemented with 2 or 4 mM glutamine, 1 mM pyruvate and 5 or 10% heat-inactivated foetal calf serum. Cultures were maintained at 37° C. in an air/5~10% CO2, water saturated atmosphere.
(§3) Glutathione depletion and evaluation of drugs as antioxidants: Experiments were carried out with cultures plated at 30,000~50,000 cells/cm^2 in 24-well culture plates (for toxicity and lipid peroxide measurements) or at 136,000 cells/cm^2 in 96-well culture plates (for GSH determination). After 8-24 hr, the cultures were switched to culture medium in the absence or presence of the cystine uptake inhibitor glutamate at a final concentration of 10 mM. In order to test drugs for inhibition of oxidative stress, the drug was added together with glutamate (final concentration of solvent was 0.01% hydroxypropyl-β-cylodextrin, 0.1% DMSO). Intracellular glutathione levels were measured after 6~8 hr, lipid peroxides were measured after 14~20 hr, and toxicity and protection were analysed after 48 hr using an LDH assay according to the method of Bergmeyer and Bernt (UV-assay with pyruvate and NADH. In: Methods of Enzymatic Analysis. 1974. H. U. Bergmeyer, ed. Acad. Press, New York, 2nd Ed., pp 574-579).
Determination of GSH content in C6 glioma cultures: GSH levels were analysed by a micromethod, essentially as described by Vandeputte et al. (A microtiterplate assay for total glutathione and glutathione disulfide contents in cultured/isolated cells: performance study of a new miniaturised protocol. 1994. Cell Biol. Toxicol. 10:415-421), with a modification in the washing and homogenisation procedures. Cells (in 96-well plates) were washed with PBS, were homogenised in 50 μl 10 mM HCl containing 1.3% 5-sulfosalicylic acid, and the homogenate was centrifuged at 1200×g for 10 min at 4° C. Forty μl of the supernatant was transferred to a well of a 96-well plate and 200 μl reagent (1 mM 5,5'-dithiobis-(2-nitrobenzoic acid), 0.34 mM NADPH and 6.3 mM EDTA in 143 mM phosphate buffer pH 7.4) was added. After 5 min equilibration to room temperature the reaction was started by adding 40 μl glutathione reductase (8.5 IU/ml 143 mM phosphate buffer, 6.3 mM EDTA pH 7.4). NADPH oxidation was followed at 414 nm for 5 minutes with a Multiskan MCC/340 (Labsystems), and the change in absorbance (DA) per min was calculated. The glutathione content was deduced from a standard curve ranging from 0.2 to 2 nmol commercial GSH per test (DA/min plotted versus concentration).

The test system of assay [2] is C6 glioma cells. Description: Protection of C6 glioma cells from glutathione depletion-mediated oxidative stress (toxicity, LDH assay). Particulars: 10 mM glutamate; for IC50: 48 hr, read-out: Protection IC50 (mean ± SD, n = 3). The class given is cell-based.
Source text: as §1, §2, §3

Assay [3] concerns primary embryonic hippocampal cultures. As to the kind of experiment: VitE complementation (vitE depletion) test on primary neuronal cultures. The assay is classed as cell-based, rats. Particulars: for rescue of survival of vitE depleted cultures: 10^-7 M and 10^-6 M. On the procedure:
Primary embryonic hippocampal cultures were prepared essentially as described previously (Pauwels et al., Van Aschouw, H. P., Peeters, L., Moeremans, M., Leysen, J. E. (1992) Chronic treatment with sabeluzole protects cultured rat brain neurons from the neurotoxic effects of excitatory amino acids. Synapse, 12:271-280). Hippocampal formations of rats at embryonic day 17 were dissected and dissociated in 0.05% trypsin, 0.1 mg/ml DNase I in DMEM (Dulbecco Modified Eagle Medium). Heat-inactivated horse serum (HS) was added to a concentration of 4%, and the cells were centrifuged, washed with DMEM, and resuspended in DMEM/Ham's F12 (3:1) containing 10% HS. The cells were plated at a density of 4×10^5 cells/cm^2 in poly L-lysine (0.001%) precoated multiwell-24 plates. On day 1 in culture, the medium was changed to chemically defined CDM-R12 medium (DMEM-HEPES/Ham's F12 (3:1) containing 0.26% bovine serum albumin, 30 nM sodium selenite, 3 nM 3,3',5 triiodo-L-thyronine, 0.35 μM retinol, 0.3 μM retinol acetate, 2.3 μM DL-a-tocopherol, 2.1 μM DL-a-tocopherol acetate, 3.6 μM linolenic acid, 3.6 μM linoleic acid, 0.125% human transferrin, […], 57.7 nM corticosterone, 49 U/I insulin, 0.4 μM biotin, 10 μM L-carnitine, 83 μM D(+)-galactose, 3.3 μM glutathione, 10 μM ethanolamine, 0.1 mM putrescine; Romijn, H. J., van Huizen, F., Wolters, P. S. (1984) Towards an improved serum-free, chemically defined medium for long-term culturing of cerebral cortex tissue. Neurosci. Behav. Rev., 8:301-334). Acute and prolonged pretreatment of the, cultures was essentially as described previously (Pauwels et al., 1992). Drugs were dissolved, and diluted in 10% or 1% hydroxypropyl-β-cyclodextrin such that the final concentrations of the solvent in the acute and chronic exposures were 0.1% and 0.01% respectively. Compound A as used in the following examples is [(RRSR)+(RRRS)+(SSSR) +(SSRS)]-α-[[[2-(chroman-2-yl)-2-hydroxy-ethyl]amino]methyl]-6-hydroxy-2-chromanmethanol ethanedioate (1:1).
For vitE depletion experiments, primary cultures were set up as above, but on day 1 in culture, the medium was changed to chemically defined CDM-R12 medium with (control) or without DL-a-tocopherol (vitE) and DL-a-tocopherol acetate, in the presence or absence of test coumpound. […] Addition of compounds could rescue the cultures. […] The EC50 for complementation of vitE refers to the concentration of the compound required to restore culture survival to 50% of the survival seen for the culture grown in vitE supplemented medium. Seven concentrations of each compound were tested in triplicate, the number of independent experiments is indicated in the table, and the mean EC50 -value±SD was calculated.
Primary neuronal cultures depend on the presence of the antioxidant vitE in the culture medium for survival in vitro. When vitE depleted medium is used to grow the cultures, survival drops to ±20% of control. Compounds with antioxidative properties are able to complement the lack of vitE, and as such can when added to the culture medium, rescue vitE devoid cultures. Several nebivolol derivatives were tested at 10^-7 M and 10^-6 M in the vitE depletion test on primary neuronal cultures.
When nebivolol derivatives were administered during culture, the cultures could be rescued to a certain extent. 100% vitE complementation refers to the survival of a cell culture which is indifferent from a vitE containing cell culture.
When hydroxynebivolol was administered during culture, the cultures could be rescued. The EC50 refers to the concentration at which the culture is rescued for 50%, as measured by cytoplasmic LDH activity.

Each structure is given as a SMILES string. Read-outs that look alike come from different tables or passages of the source.

Regarding `Oc1ccc2c(c1)CCC(C(O)CNCC(O)C1CCc3ccccc3O1)O2` (stereo not drawn) [Compound A, [(RRSR)+(RRRS)+(SSSR) +(SSRS)]-α-[[[2-(chroman-2-yl)-2-hydroxy-ethyl]amino]methyl]-6-hydroxy-2-chromanmethanol ethanedioate (1:1)], in the assay on C6 glioma cells [1], the intracellular glutathione levels result was “remained about half the levels seen in healthy control cells” and the GSH content is listed as 301 ± 12 pmol/well. Moreover, in the assay with C6 glioma cells [2], the “protection from cell death” value is “protected these cultures from cell death with high potency” and the IC50 was found to be 8.6 ± 0.2 nM. Moreover, the IC50 with C6 glioma cells [2] (C6 glioma, 48 h) is approximately 9 nM. In assay [3] (10^-6 M), the “% vitE complementation” value was determined as 85 ± 21% and the “rescue of primary neuronal cultures grown in VitE depleted medium” value is reported as “complete rescue”. Further, the “% vitE complementation” value in assay [3] (10^-7 M) was 27 ± 28%. Further, the “rescue of survival of vitE depleted cultures” value in assay [3] is listed as “able to rescue survival of vitE depleted cultures to a certain extent”. Besides, the EC50 in assay [3] (Rattus norvegicus, 5 dose responses, cytoplasmic LDH activity, read-out: mean EC50 ± SD for complementation of vitE) stood at 126 ± 88 nM.

Consider `O[C@H](CNC[C@@H](O)[C@H]1CCc2cc(F)ccc2O1)[C@@H]1CCc2cc(F)ccc2O1` (relative stereo) [nebivolol, (RSSS) and (SRRR) α,α'-iminobis(methylene)bis[6-fluoro-2-chroman-methanol]], for which, in the assay on C6 glioma cells [1], the intracellular glutathione levels entry is reported as “remained about half the levels seen in healthy control cells” and the GSH content is recorded as 301 ± 12 pmol/well. For the same molecule, in the assay on C6 glioma cells [2], the “protection from cell death” value is reported as “protected these cultures from cell death with high potency” and the IC50 is 9.1 ± 0.1 nM. For the same molecule, the IC50 with C6 glioma cells [2] (C6 glioma, 48 h) was approximately 9 nM. In addition, the “% vitE complementation” value in assay [3] (10^-6 M) is on record as 29 ± 28%. The “% vitE complementation” value in assay [3] (10^-7 M) was determined as 29 ± 29%. Also, in assay [3], the “rescue of survival of vitE depleted cultures” value is on record as “able to rescue survival of vitE depleted cultures to a certain extent”.
